The subject of one assay is HCV replicon. The experiment in a line: Two-drug combination studies in HCV replicon system, combination index (Chou). To be noted: for pEC50: monotherapy, NS3 protease inhibitor = compound 28, read-out: NS3 protease inhibitor EC50. In kind it is cell-based. An excerpt:
Since clinical drug resistance often develops in viral infections following single-agent therapies, there is a need to assess the additive, antagonistic, or synergistic properties of combination therapies. We used the HCV replicon system, as described above, to assess the potential use of our NS3 protease macrocyclic inhibitor in combination therapies with Intron A and inhibitors targeting other HCV proteins. Three HCV antivirals, Intron A (recombinant Interferon alfa-2b) an HCV NS5A inhibitor having the following structure:
In addition, compound 28 was also tested in 3-drug combinations with the NS5A and NS5B inhibitors.
For the experiments shown in Tables 8 and 9, inhibitors were tested at eleven concentrations each. 200× stock solutions of each inhibitor concentration were prepared by 2- or 3-fold dilution in DMSO prior to addition to cells/media. The drugs were tested as monotherapies and in combination with the NS3 protease inhibitor at various concentration ratios. Cells were exposed to compounds for 4 days and the amount of HCV inhibition was then determined using the FRET assay. The potential cytotoxicities of these combined agents were also analyzed in parallel by Alamar Blue staining. […] The degree of antagonism, additivity, or synergy was determined over a range of drug concentrations, and combination response curves were fit to assess the antiviral effects of the drug treatment combinations. The concentration ratios were analyzed using the method of Chou (Chou, Ting-Chao, and Rideout (Editors), (1991) Synergism and Antagonism in Chemotherapy, P. 61–101, Academic Press, New York). Tables 8 and 9 report the estimated EC50 values for the compounds tested, as well as the combination indices (CI). All estimates were computed using SAS Proc NLIN, and a two-parameter logistic. All combination indices were tested for departure from additivity using isobologram methods. Asymptotic confidence intervals were also calculated for each of the combination indices. These intervals are used to test for departure from additivity by comparing the bounds to one—a lower bound of the interval greater than 1 indicates antagonism, an upper bound of less than 1 indicates synergism, and a value of 1 contained in the interval indicates additivity.
(Replicon systems follow genome replication, usually without infectious particles.)

The target in assay [1] is T1, HCV NS3/4A protease complex, H77C strain (1a genotype) (Hepatitis C virus genotype 1a, UniProt P27958, C1454S).
T1 construct: DNA encoding the recombinant HCV NS3/4A protease complex (amino acids 1027 to 1711) for these strains; His tag (inferred from Ni-NTA purification and pET21b vector); made in house; host or cells: Escherichia coli BL21 (DE3)
T1 sequence (P27958 1027-1657 C1454S): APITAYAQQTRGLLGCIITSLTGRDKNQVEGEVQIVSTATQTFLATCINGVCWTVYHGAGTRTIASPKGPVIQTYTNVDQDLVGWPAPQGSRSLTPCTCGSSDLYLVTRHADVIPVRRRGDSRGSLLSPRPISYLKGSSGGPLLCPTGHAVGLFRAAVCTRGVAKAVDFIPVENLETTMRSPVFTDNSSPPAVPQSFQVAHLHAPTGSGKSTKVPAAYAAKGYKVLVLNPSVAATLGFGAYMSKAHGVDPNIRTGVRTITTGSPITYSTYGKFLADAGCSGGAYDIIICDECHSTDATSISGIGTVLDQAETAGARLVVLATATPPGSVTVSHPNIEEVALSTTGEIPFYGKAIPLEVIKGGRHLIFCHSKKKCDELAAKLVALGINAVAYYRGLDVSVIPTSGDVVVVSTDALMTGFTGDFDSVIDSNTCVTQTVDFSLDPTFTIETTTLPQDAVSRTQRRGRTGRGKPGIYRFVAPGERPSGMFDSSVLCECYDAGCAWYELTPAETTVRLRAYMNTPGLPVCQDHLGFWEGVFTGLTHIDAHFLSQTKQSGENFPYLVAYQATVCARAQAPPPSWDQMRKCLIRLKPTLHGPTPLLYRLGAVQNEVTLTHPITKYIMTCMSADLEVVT
T1 sequence (P27958 1658-1714 partner, looked up, stated change not applied): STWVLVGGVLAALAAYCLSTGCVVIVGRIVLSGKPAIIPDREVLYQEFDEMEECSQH
Nature of the assay: Recombinant HCV NS3/4A protease complex FRET peptide assay, H77C strain. In kind it is biochemical. An excerpt:
Recombinant HCV NS3/4A Protease Complex FRET Peptide Assay
The purpose of this in vitro assay was to measure the inhibition of HCV NS3 protease complexes, derived from the BMS strain, H77C strain or J416S strain, as described below, by compounds of the present invention. This assay provides an indication of how effective compounds of the present invention would be in inhibiting HCV proteolytic activity.
Serum from an HCV-infected patient was obtained from Dr. T. Wright, San Francisco Hospital. An engineered full-length cDNA (compliment deoxyribonucleic acid) template of the HCV genome (BMS strain) was constructed from DNA fragments obtained by reverse transcription-PCR (RT-PCR) of serum RNA (ribonucleic acid) and using primers selected on the basis of homology between other genotype 1a strains. From the determination of the entire genome sequence, a genotype 1a was assigned to the HCV isolate according to the classification of Simmonds et al. (See P Simmonds, K A Rose, S Graham, S W Chan, F McOmish, B C Dow, E A Follett, P L Yap and H Marsden, J. Clin. Microbiol., 31(6), 1493–1503 (1993)). […]

Setting [2] is: 75, 90 and 95% effective doses, two experiments.

pEC50, pIC50: −log10 of the molar value. “Also recorded” adds a separate entry of the source. Where two headings read alike, the source gives them in different places.

The term pEC50 denotes the negative decadic logarithm of the EC50, by convention in mol/L. On to `COc1ccc2c(OC3CC4C(=O)NC5(C(=O)NS(=O)(=O)C6CC6)CC5C=CCOCCCC(NC(=O)OC(C)(C)C)C(=O)N4C3)nccc2c1` (stereo not drawn) [Compound 28, [4-Cyclopropanesulfonylaminocarbonyl-18-(6-methoxy-isoquinolin-1-yloxy)-2,15-dioxo-10-oxa-3,16-diaza-tricyclo[14.3.0.0^4,6]nonadec-7-en-14-yl]-carbamic acid tert-butyl ester], for which the “combination effect with Intron A (Interferon alfa-2b)” value in the assay with HCV replicon (setting [2]) was “either synergistic or additivity effects; also recorded: no drug antagonism”. Also, the “combination effect with the HCV NS5A inhibitor” value in the assay on HCV replicon (setting [2]) is on record as “Synergy or additivity; also recorded: no drug antagonism”. The pEC50 with HCV replicon (Hepatitis C virus, Table 9 (combinations with an NS5A inhibitor)) is 8.05; with HCV replicon (Table 9 (combinations with an NS5A inhibitor)), 7.96; in the assay on HCV replicon (Table 8 (combinations with Interferon alfa-2b)) it was 8.00.
For orientation: pIC50 means the negative decadic logarithm of the IC50, by convention in mol/L. For the compound `CC(C)(C)OC(=O)N[C@H]1CCCCC/C=C\[C@@H]2C[C@@]2(C(=O)NS(C)(=O)=O)NC(=O)[C@@H]2C[C@@H](Oc3nccc4ccccc34)CN2C1=O` [Compound 2, [18-(Isoquinolin-1-yloxy)-4-methanesulfonylaminocarbonyl-2,15-dioxo-3,16-diaza-tricyclo[14.3.0.0^4,6]nonadec-7-en-14-yl]-carbamic acid tert-butyl ester], the pIC50 in assay [1] is 8.38.

Source of the values: US7173004B2, “Macrocyclic isoquinoline peptide inhibitors of hepatitis C virus” (Bristol-Myers Squibb Company, priority 2003, dated 2007).
